{"source": "ChEMBL document CHEMBL6109129", "about": "“Discovery of Conformationally Constrained Dihydro Benzo-Indole Derivatives as Metallo-β-Lactamase Inhibitors to Tackle Multidrug-Resistant Bacterial Infections” (J Med Chem, 2025)", "key": {"Klebsiella pneumoniae [1]": {"system": "Klebsiella pneumoniae", "experiment": "Synergistic antibacterial activity against carbapenem-resistant Klebsiella pneumoniae BAA-2473 assessed as reduction in microbial growth at 8 ug/ml measured after 16 to 18 hrs in presence of meropenem by microbial dilution method", "type": "functional", "conditions": "dose 8 µg/ml, time 16-18 hrs"}, "Escherichia coli [2]": {"system": "Escherichia coli", "experiment": "Synergistic antibacterial activity against carbapenem-resistant Escherichia coli BAA-2471 assessed as reduction in microbial growth at 8 ug/ml measured after 16 to 18 hrs in presence of meropenem by microbial dilution method", "type": "functional", "conditions": "dose 8 µg/ml, time 16-18 hrs"}, "Enterobacter cloacae [3]": {"system": "Enterobacter cloacae", "experiment": "Synergistic antibacterial activity against carbapenem-resistant Enterobacter cloacae BAA-2468 assessed as reduction in microbial growth at 8 ug/ml measured after 16 to 18 hrs in presence of meropenem by microbial dilution method", "type": "functional", "conditions": "dose 8 µg/ml, time 16-18 hrs"}, "[4]": {"target": "Metallo-beta-lactamase type 2 (Bacteria) (UniProt C7C422)", "sequence (C7C422 whole entry)": "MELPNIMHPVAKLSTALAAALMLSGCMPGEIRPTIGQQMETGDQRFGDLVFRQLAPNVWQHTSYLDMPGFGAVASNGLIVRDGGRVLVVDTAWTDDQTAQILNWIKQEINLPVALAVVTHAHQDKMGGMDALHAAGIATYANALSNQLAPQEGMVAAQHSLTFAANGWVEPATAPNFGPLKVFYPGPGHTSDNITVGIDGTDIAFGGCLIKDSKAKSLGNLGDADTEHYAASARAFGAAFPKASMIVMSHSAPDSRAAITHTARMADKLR", "experiment": "Induction of thermal stabilization of NDM-1 (unknown origin) assessed as melting temperature at 25 uM by differential scanning fluorimetry analysis"}, "Escherichia coli [5]": {"system": "Escherichia coli", "experiment": "Synergistic antibacterial activity against carbapenem-resistant Escherichia coli 565988 assessed as reduction in microbial growth at 4 ug/ml measured after 16 to 18 hrs in presence of imipenem by microbial dilution method", "type": "functional", "conditions": "dose 4 µg/ml, time 16-18 hrs"}, "Klebsiella pneumoniae [6]": {"system": "Klebsiella pneumoniae", "experiment": "Synergistic antibacterial activity against carbapenem-resistant Klebsiella pneumoniae 565345 assessed as reduction in microbial growth at 16 ug/ml measured after 16 to 18 hrs in presence of imipenem by microbial dilution method", "type": "functional", "conditions": "dose 16 µg/ml, time 16-18 hrs"}, "Klebsiella pneumoniae [7]": {"system": "Klebsiella pneumoniae", "experiment": "Synergistic antibacterial activity against carbapenem-resistant Klebsiella pneumoniae 552439 assessed as reduction in microbial growth at 4 ug/ml measured after 16 to 18 hrs in presence of imipenem by microbial dilution method", "type": "functional", "conditions": "dose 4 µg/ml, time 16-18 hrs"}, "Enterobacter cloacae [8]": {"system": "Enterobacter cloacae", "experiment": "Synergistic antibacterial activity against carbapenem-resistant Enterobacter cloacae BAA-2468 assessed as reduction in microbial growth at 16 ug/ml measured after 16 to 18 hrs in presence of meropenem by microbial dilution method", "type": "functional", "conditions": "dose 16 µg/ml, time 16-18 hrs"}, "Klebsiella pneumoniae [9]": {"system": "Klebsiella pneumoniae", "experiment": "Synergistic antibacterial activity against carbapenem-resistant Klebsiella pneumoniae 538961 assessed as reduction in microbial growth at 16 ug/ml measured after 16 to 18 hrs in presence of meropenem by microbial dilution method", "type": "functional", "conditions": "dose 16 µg/ml, time 16-18 hrs"}, "[10]": {"experiment": "Inhibition of VIM-1 (unknown origin) using FC5 as substrate preincubated for 10 mins followed by substrate addition and measured immediately by fluorescence based analysis", "set-up": "species or system Bacteria"}, "[11]": {"system": "Klebsiella pneumoniae subsp. pneumoniae", "experiment": "Synergistic antibacterial activity against carbapenem-resistant Klebsiella pneumoniae subsp. pneumoniae BAA-2472 assessed as reduction in microbial growth at 0.5 ug/ml measured after 16 to 18 hrs in presence of meropenem by microbial dilution method", "type": "functional", "conditions": "dose 0.5 µg/ml, time 16-18 hrs"}, "[12]": {"system": "Klebsiella pneumoniae subsp. pneumoniae", "experiment": "Synergistic antibacterial activity against carbapenem-resistant Klebsiella pneumoniae subsp. pneumoniae BAA-2470 assessed as reduction in microbial growth at 0.5 ug/ml measured after 16 to 18 hrs in presence of imipenem by microbial dilution method", "type": "functional", "conditions": "dose 0.5 µg/ml, time 16-18 hrs"}, "[13]": {"target": "Metallo-beta-lactamase type 2 (Bacteria) (UniProt C7C422)", "experiment": "Induction of thermal stabilization of NDM-1 (unknown origin) assessed as melting temperature at 3.12 uM by differential scanning fluorimetry analysis"}, "Klebsiella pneumoniae [14]": {"system": "Klebsiella pneumoniae", "experiment": "Synergistic antibacterial activity against carbapenem-resistant Klebsiella pneumoniae 571278 assessed as reduction in microbial growth at 16 ug/ml measured after 16 to 18 hrs in presence of imipenem by microbial dilution method", "type": "functional", "conditions": "dose 16 µg/ml, time 16-18 hrs"}, "[15]": {"experiment": "Plasma protein binding in mouse assessed as unbound fraction at 10 uM measured after 5 hrs by LC-MS/MS analysis", "type": "ADME, cell-free"}, "Klebsiella pneumoniae [16]": {"system": "Klebsiella pneumoniae", "experiment": "Synergistic antibacterial activity against carbapenem-resistant Klebsiella pneumoniae 538961 assessed as reduction in microbial growth at 4 ug/ml measured after 16 to 18 hrs in presence of meropenem by microbial dilution method", "type": "functional", "conditions": "dose 4 µg/ml, time 16-18 hrs"}, "[17]": {"experiment": "Plasma protein binding in human assessed as unbound fraction at 10 uM measured after 5 hrs by LC-MS/MS analysis", "type": "ADME, cell-free"}, "Escherichia coli [18]": {"system": "Escherichia coli", "experiment": "Synergistic antibacterial activity against carbapenem-resistant Escherichia coli BAA-2469 assessed as reduction in microbial growth at 16 ug/ml measured after 16 to 18 hrs in presence of meropenem by microbial dilution method", "type": "functional", "conditions": "dose 16 µg/ml, time 16-18 hrs"}, "Enterobacter cloacae [19]": {"system": "Enterobacter cloacae", "experiment": "Synergistic antibacterial activity against carbapenem-resistant Enterobacter cloacae BAA-2468 assessed as reduction in microbial growth at 0.5 ug/ml measured after 16 to 18 hrs in presence of imipenem by microbial dilution method", "type": "functional", "conditions": "dose 0.5 µg/ml, time 16-18 hrs"}, "[20]": {"target": "Metallo-beta-lactamase type 2 (Bacteria) (UniProt C7C422)", "experiment": "Induction of thermal stabilization of NDM-1 (unknown origin) assessed as melting temperature at 12.5 uM by differential scanning fluorimetry analysis"}, "Escherichia coli [21]": {"system": "Escherichia coli", "experiment": "Synergistic antibacterial activity against carbapenem-resistant Escherichia coli 565988 assessed as reduction in microbial growth at 16 ug/ml measured after 16 to 18 hrs in presence of imipenem by microbial dilution method", "type": "functional", "conditions": "dose 16 µg/ml, time 16-18 hrs"}, "Escherichia coli [22]": {"system": "Escherichia coli", "experiment": "Synergistic antibacterial activity against carbapenem-resistant Escherichia coli 567975 assessed as reduction in microbial growth at 4 ug/ml measured after 16 to 18 hrs in presence of imipenem by microbial dilution method", "type": "functional", "conditions": "dose 4 µg/ml, time 16-18 hrs"}, "Klebsiella pneumoniae [23]": {"system": "Klebsiella pneumoniae", "experiment": "Synergistic antibacterial activity against carbapenem-resistant Klebsiella pneumoniae 571278 assessed as reduction in microbial growth at 4 ug/ml measured after 16 to 18 hrs in presence of meropenem by microbial dilution method", "type": "functional", "conditions": "dose 4 µg/ml, time 16-18 hrs"}, "Enterobacter cloacae [24]": {"system": "Enterobacter cloacae", "experiment": "Synergistic antibacterial activity against carbapenem-resistant Enterobacter cloacae BAA-2468 assessed as reduction in microbial growth at 16 ug/ml measured after 16 to 18 hrs in presence of imipenem by microbial dilution method", "type": "functional", "conditions": "dose 16 µg/ml, time 16-18 hrs"}, "[25]": {"experiment": "Metabolic stability in human liver microsomes assessed as intrinsic clearance at 1 uM preincubated for 5 mins followed by NADPH addition and measured up to 60 mins by LC-MS/MS analysis", "type": "ADME, Microsome", "conditions": "time < 65 min, read-out: CLH"}}}
{"molecule": "COc1ccc(Cl)cc1-c1c(C(=O)O)[nH]c2c1CCc1ccccc1-2", "values": [{"measurement": "MIC", "setting": "Klebsiella pneumoniae [1]", "value": 16, "unit": "µg/mL"}, {"measurement": "MIC", "setting": "Escherichia coli [2]", "value": 16, "unit": "µg/mL"}, {"measurement": "MIC", "setting": "Enterobacter cloacae [3]", "value": 8, "unit": "µg/mL"}, {"measurement": "Tm", "setting": "[4]", "value": 19, "unit": "°C"}, {"measurement": "MIC", "setting": "Escherichia coli [5]", "value": 1, "unit": "µg/mL"}, {"measurement": "MIC", "setting": "Klebsiella pneumoniae [6]", "value": 8, "unit": "µg/mL"}, {"measurement": "MIC", "setting": "Klebsiella pneumoniae [7]", "value": 4, "unit": "µg/mL"}, {"measurement": "MIC", "setting": "Enterobacter cloacae [8]", "value": 4, "unit": "µg/mL"}, {"measurement": "MIC", "setting": "Klebsiella pneumoniae [9]", "value": 4, "unit": "µg/mL"}, {"measurement": "IC50", "setting": "[10]", "value": 21, "unit": "nM"}, {"measurement": "MIC", "setting": "[11]", "value": "> 64", "unit": "µg/mL"}, {"measurement": "MIC", "setting": "[12]", "value": 16, "unit": "µg/mL"}, {"measurement": "Tm", "setting": "[13]", "value": 14, "unit": "°C"}, {"measurement": "MIC", "setting": "Klebsiella pneumoniae [14]", "value": 4, "unit": "µg/mL"}, {"measurement": "fraction unbound at 5 h, 10 µM", "setting": "[15]", "value": 0.952}, {"measurement": "MIC", "setting": "Klebsiella pneumoniae [16]", "value": 16, "unit": "µg/mL"}, {"measurement": "fraction unbound at 5 h, 10 µM", "setting": "[17]", "value": 0.992}, {"measurement": "MIC", "setting": "Escherichia coli [18]", "value": 2, "unit": "µg/mL"}, {"measurement": "MIC", "setting": "Enterobacter cloacae [19]", "value": "> 64", "unit": "µg/mL"}, {"measurement": "Tm", "setting": "[20]", "value": 18, "unit": "°C"}, {"measurement": "MIC", "setting": "Escherichia coli [21]", "value": "< 0.5", "unit": "µg/mL"}, {"measurement": "MIC", "setting": "Escherichia coli [22]", "value": 8, "unit": "µg/mL"}, {"measurement": "MIC", "setting": "Klebsiella pneumoniae [23]", "value": 32, "unit": "µg/mL"}, {"measurement": "MIC", "setting": "Enterobacter cloacae [24]", "value": 32, "unit": "µg/mL"}, {"measurement": "microsomal CLint at 1 µM", "setting": "[25]", "value": 9.8, "unit": "µL/min/mg"}]}
